The results in this text go back to article PMC11597774, “Investigation of Antimicrobial and Anti-Inflammatory Efficacy of Newly Synthesized Pyrogallol-Coumarin Hybrids: In Vitro and In Silico Studies” (Pharmaceutics, 2024).

One experiment deals with S. aureus (isolate). The experiment in a line: Microdilution MIC/MMC with resazurin. Type of experiment: cell-based, Staphylococcus aureus. The settings on record: for MIC: Staphylococcus aureus. The procedure: (§1) The antimicrobial activity of PCH-1 and PCH-2 was tested against 13 microorganisms. The experiment included four standard strains, Staphylococcus aureus ATCC 6538, Bacillus subtilis ATCC 6633, Proteus mirabilis ATCC 12453, and Pseudomonas aeruginosa ATCC 27853; five isolates, Staphylococcus aureus, Escherichia coli, Salmonella enterica, Klebsiella pneumoniae, and Bacillus subtilis; and one probiotic strain Lactobacillus plantarum 299V. Additionally, three fungal strains were tested, including one standard strain, Candida albicans ATCC 10231, and two isolates, Saccharomyces cerevisiae and probiotic strain Saccharomyces boulardii.
(§2) The bacterial suspensions were prepared using the direct colony method. The turbidity of the initial suspension was adjusted using a densitometer (DEN-1, BioSan, Latvia). When adjusted to the turbidity of the 0.5 McFarland standard, the bacterial suspension contains approximately 10^8 colony-forming units (CFU)/mL, and the yeast suspension contains approximately 10^6 CFU/mL. For the experiment, the initial suspension was further diluted at a 1:100 ratio in a sterile 0.85% saline solution.
(§3) The antimicrobial activity was assessed by determining the minimum inhibitory concentrations (MICs) and minimum microbicidal concentrations (MMCs) using the microdilution plate method with resazurin (Alfa Aesar GmbH & Co. (KG, Karlsruhe, Germany)). For this, 96-well plates were prepared by adding 100 μL of Mueller Hinton broth (Torlak, Belgrade, Serbia) for bacterial tests and Sabouraud broth (Torlak, Belgrade, Serbia) for yeast into each well. The tested PCH-1 and PCH-2 were dissolved in 10% dimethyl sulfoxide (DMSO) and then diluted into sterile distilled water. A 100 μL sample from the stock solution of the tested compound was then added to the first row of the plate, followed by twofold serial dilutions using a multichannel pipette. This produced a concentration range from 2.69 to 0.0025 µmol/L. The method is described in detail in the reported paper.
(§4) Each test setup included growth control and sterility control. […] Minimum microbicidal concentrations (MMCs) were determined as described in detail in the reported paper.
A general note: Broth dilution looks for growth in wells or tubes with falling amounts of substance.

A further experiment deals with S. boulardii. Nature of the experiment: Microdilution MIC/MMC with resazurin. Type of experiment: cell-based, Saccharomyces boulardii. As to conditions: for MIC: Saccharomyces cerevisiae. The method, then:
as §1, §2, §3, §4

Experiment [1] deals with T1, Soybean lipoxygenase (Type I-B) (Glycine max, UniProt P08170).
T1 construct: purchased Merck (KGaA, Darmstadt, Germany)
T1 sequence (P08170 1-839): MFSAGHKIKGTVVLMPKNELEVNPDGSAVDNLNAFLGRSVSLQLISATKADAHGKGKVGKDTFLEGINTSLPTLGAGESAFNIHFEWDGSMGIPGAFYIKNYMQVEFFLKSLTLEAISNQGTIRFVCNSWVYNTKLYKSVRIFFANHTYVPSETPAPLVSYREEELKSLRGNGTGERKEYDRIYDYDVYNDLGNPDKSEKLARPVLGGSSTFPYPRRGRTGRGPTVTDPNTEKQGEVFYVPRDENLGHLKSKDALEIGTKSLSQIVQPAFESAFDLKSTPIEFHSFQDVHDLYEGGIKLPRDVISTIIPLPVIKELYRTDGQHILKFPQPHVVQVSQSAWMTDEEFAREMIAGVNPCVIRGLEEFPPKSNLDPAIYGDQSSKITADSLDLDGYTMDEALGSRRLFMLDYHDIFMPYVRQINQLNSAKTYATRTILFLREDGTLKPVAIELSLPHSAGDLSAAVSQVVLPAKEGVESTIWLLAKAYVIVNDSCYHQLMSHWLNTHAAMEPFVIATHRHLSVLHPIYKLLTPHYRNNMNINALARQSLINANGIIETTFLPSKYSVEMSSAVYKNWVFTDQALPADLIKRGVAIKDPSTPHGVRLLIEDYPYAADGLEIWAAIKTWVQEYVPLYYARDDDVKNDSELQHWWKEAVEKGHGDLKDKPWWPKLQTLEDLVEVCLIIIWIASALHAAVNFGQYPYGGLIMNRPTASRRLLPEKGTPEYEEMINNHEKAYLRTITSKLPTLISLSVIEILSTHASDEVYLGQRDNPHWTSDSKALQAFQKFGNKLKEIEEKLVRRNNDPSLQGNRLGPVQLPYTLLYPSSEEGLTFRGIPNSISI
Nature of the experiment: In vitro LOX inhibition assay. The class given is biochemical. As to conditions: for inhibition at 25 µM / inhibition at 50 µM / inhibition at 100 µM: read-out: Anti-LOX Activity (%); for IC50: sodium linoleate substrate, tris buffer pH 9, read-out: IC50 (µM), in vitro lipoxygenase inhibitory activity. An excerpt: Soybean lipoxygenase (Type I-B) is a very often used enzyme for the investigation of anti-inflammatory properties of compounds [38]. The LOX inhibition assay measures the rate of oxidation of linoleic acid by lipoxygenase, which results in the formation of a colorless product that can be detected spectrophotometrically. This enzyme catalyzes the conversion of linoleic acid into hydroperoxy fatty acids and results in increased absorbance at 234 nm. The tested compounds dissolved in DMSO were incubated at room temperature with sodium linoleate (3 mM in tris buffer pH = 9) and enzyme solution (5 × 10^3 units/mL in saline). The activity for each tested compound was presented as IC50 value ± standard deviation (SD) of three independent measurements.

Converted amounts (≈) assume the structure as drawn.

For orientation: MIC means the smallest concentration in the dilution series that meets the test's criterion for growth inhibition. A low value points to greater potency. As usually defined, the IC50 is the concentration at which inhibition is half-maximal. In the experiment on S. aureus (isolate), `C/C(NNC(=O)c1ccc(O)c(O)c1O)=C1\C(=O)Oc2ccccc2C1=O` [PCH-1, (E)-N′-(1-(2,4-dioxochroman-3-ylidene)ethyl)-2,3,4-trihydroxybenzohydrazide] registered an MMC of 2.70 mM and an MIC of 2700 µM (≈ 1000 µg/mL). Moreover, in the experiment on S. boulardii, the MMC amounted to 2.70 mM and the MIC was 1350 µM (≈ 500 µg/mL). Besides, in experiment [1], the inhibition at 25 µM was found to be 32.8 ± 2.4%, the inhibition at 30 µM worked out at 36.8 ± 2.4%, the inhibition at 40 µM was 51.4 ± 1.8% and the inhibition at 50 µM worked out at 65.1 ± 2%. Further, in experiment [1], the inhibition at 100 µM was determined as 96.1 ± 0.7% and the IC50 is 38.1 µM. Further, the inhibition at 60 µM in experiment [1] (60 µM) turned out to be 84.9 ± 0.1%.
On to `C/C(NNC(=O)c1cc(O)c(O)c(O)c1)=C1\C(=O)Oc2ccccc2C1=O` [PCH-2, (E)-N′-(1-(2,4-dioxochroman-3-ylidene)ethyl)-3,4,5-trihydroxybenzohydrazide], for which, in the experiment on S. aureus (isolate), the MMC came to 1.35 mM and the MIC was determined as 1350 µM (≈ 500 µg/mL). In the experiment on S. boulardii, this molecule gave an MMC of 2.70 mM and an MIC of 2700 µM (≈ 1000 µg/mL). For the same molecule, in experiment [1] (20 µM), the inhibition at 20 µM amounted to 20.7 ± 2.7%. In addition, in experiment [1], the inhibition at 25 µM stood at 38.9 ± 3.1%, the inhibition at 30 µM is 41.9 ± 1.4%, the inhibition at 40 µM worked out at 67 ± 0.9% and the inhibition at 50 µM is 71.7 ± 2.2%. In addition, in experiment [1], the inhibition at 100 µM amounted to 95.2 ± 1% and the IC50 amounted to 34.1 µM.
